Where “and” joins values, the source holds several entries; their conditions need not be identical. Equal values may be shown once.
Legend:
[1] = system: A549‐, MDA‐MB‐231‐, and U‐87MG‐derived tumors; experiment: qPCR of excised xenograft tumors; format: in vivo, mouse
Method: (§1) U‐87MG cells (3 × 10^6/mouse), A549 cells (5 × 10^6/mouse), or MDA‐MB‐231 cells (3 × 10^6/mouse) were inoculated subcutaneously (s.c.) into the hind leg flanks of athymic 8‐week‐old male nude mice (Envigo, Huntingdon, UK). Tumor size was measured using a digital caliper and volume was calculated, and when reached 50–100 mm^3 for each tumor type, mice were randomly divided into two groups (five mice per group). […] The xenografts were injected (two points, 20 μL per tumor) every two days. Beginning on the day of inoculation, mouse weight and tumor volume were monitored twice a week. Experiments were terminated after 14, 29, or 20 days for U‐87MG‐, MDA‐MB‐231‐, or A549‐based tumors, respectively. The mice were sacrificed and tumors were excised. Half of each tumor was fixed in 4% buffered formaldehyde, paraffin‐embedded, and processed for IHC, while the second half was frozen in liquid nitrogen for immunoblotting and qPCR analyses. These experimental protocols were approved by the Institutional Animal Care and Use Committee of Ben‐Gurion University.
Total RNA was isolated from untreated and peptide‐treated tumors (three mice each) using an RNeasy Mini Kit (Qiagen, Hilden, Germany) according to the manufacturer's instructions. Total RNA quality was analyzed using the Agilent RNA 6000 Nano Kit. […] The levels of target genes were normalized relative to β‐actin mRNA levels. Samples were amplified by a 7300 Real‐Time PCR System (Applied Biosystems) for denaturation step of 5 min at 95 °C and 40 cycles using the following PCR parameters: 95 °C for 15 s, 60 °C for 1 min, and 72 °C for 1 min. The copy numbers for each sample were calculated by the CT‐based calibrated standard curve method. The mean fold changes (±SE) of three replicates were calculated.

[2] = target: T1, HK‐I (Homo sapiens, UniProt P19367); experiment: HK activity assay with purified recombinant HK‐I; format: biochemical; details: HK‐I 13 µg/ml pre‐incubated with peptide; 1 mM ATP, G6PDH‐coupled, absorbance at 340 nm (Fig. S3B)
T1 construct: His; made in house; host or cells: Escherichia coli BL21
T1 sequence (P19367 1-917): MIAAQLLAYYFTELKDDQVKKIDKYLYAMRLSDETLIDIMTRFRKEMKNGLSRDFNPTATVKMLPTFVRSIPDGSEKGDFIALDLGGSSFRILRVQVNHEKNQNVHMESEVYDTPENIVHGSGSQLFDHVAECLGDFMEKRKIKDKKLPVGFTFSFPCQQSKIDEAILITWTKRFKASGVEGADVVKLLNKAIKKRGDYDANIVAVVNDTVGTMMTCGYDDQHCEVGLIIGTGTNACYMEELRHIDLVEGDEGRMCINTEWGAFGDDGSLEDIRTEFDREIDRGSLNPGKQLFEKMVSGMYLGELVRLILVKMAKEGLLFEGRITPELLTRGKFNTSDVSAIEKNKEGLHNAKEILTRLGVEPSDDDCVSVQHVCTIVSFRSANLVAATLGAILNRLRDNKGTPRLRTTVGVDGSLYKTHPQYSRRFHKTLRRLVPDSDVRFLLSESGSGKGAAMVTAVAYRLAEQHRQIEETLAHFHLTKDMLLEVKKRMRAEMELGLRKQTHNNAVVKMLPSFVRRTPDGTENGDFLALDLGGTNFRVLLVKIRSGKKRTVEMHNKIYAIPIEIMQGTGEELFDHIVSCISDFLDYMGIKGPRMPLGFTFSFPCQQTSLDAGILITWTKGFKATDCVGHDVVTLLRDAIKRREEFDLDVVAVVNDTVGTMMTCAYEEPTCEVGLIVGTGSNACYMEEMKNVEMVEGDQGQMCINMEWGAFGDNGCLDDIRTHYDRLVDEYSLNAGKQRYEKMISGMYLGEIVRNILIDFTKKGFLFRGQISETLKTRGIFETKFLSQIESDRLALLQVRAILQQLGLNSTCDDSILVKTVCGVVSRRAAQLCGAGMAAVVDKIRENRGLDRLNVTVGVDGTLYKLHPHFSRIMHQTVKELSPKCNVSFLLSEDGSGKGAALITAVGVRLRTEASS
Method: Human HK‐I and HK‐II were cloned into plasmid pET‐His DNA and expressed in Escherichia coli BL21 upon IPTG induction. HK was purified from lysed cells using a HiTrap nickel column (GE Healthcare). Following dialysis, the imidazole‐eluted protein was further purified using a Blue HiTrap column (GE Healthcare). HK was eluted using 10 mM glucose, 20 mM Tris/HCl (pH 8.5), 20% glycerol, and 1.5 mM glucose‐6‐phosphate. Fractions were analyzed by SDS/PAGE and tested for HK activity. The purified active fractions were combined and stored in aliquots at −80 °C.
Change in absorbance at 340 nm (NADH production) was spectrophotometrically measured following addition of 1 mM ATP and 0.05 unit·mL^−1 glucose‐6‐phosphate dehydrogenase.
Purified HK-I (13 µg/ml) was pre-incubated with the indicated concentrations of Tf-D-LP4 (●) or R-Tf-D-LP4 (○) and assayed for HK activity as described in Materials and Methods. Change in absorbance at 340 nm (NADH production) was spectrophotometrically measured following addition of 1 mM ATP, and 0.05 unit/ml glucose-6-phosphate dehydrogenase. C. Tf-D-LP4 and R-Tf-D-LP4 solubility. The peptides were dissolved to a final concentration of 5 mM in 5% DMSO and diluted to 1.1 mM in HBSS. Peptide absorbance in the supernatant was measured at 280 nm following centrifugation at 12,000g before and after 75 min incubation at 24 °C. […] Cell death was analyzed using PI and FACS analysis. […]

[3] = system: MDA‐MB‐231 cell xenograft; experiment: Subcutaneous xenograft mouse model, tumor growth; format: in vivo; details: MDA‐MB‐231 s.c. xenograft, nude mice; intratumoral 40 or 60 μM, 20 μL per tumor every two days; 29 days; vs HBSS control; n = 5
Method: as §1

[4] = system: U‐87MG cell xenograft; experiment: Subcutaneous xenograft mouse model, tumor growth; format: in vivo; details: U‐87MG s.c. xenograft, nude mice; intratumoral 40 or 60 μM, 20 μL per tumor every two days; 14 days; vs HBSS control; n = 5
Method: as §1

[5] = system: A549 cell xenograft; experiment: Subcutaneous xenograft mouse model, tumor growth; format: in vivo; details: A549 s.c. xenograft, nude mice; intratumoral 40 or 60 μM, 20 μL per tumor every two days; 20 days; vs HBSS control; n = 5
Method: as §1

[6] = treated tumors vs control, n = 3 (Fig. 7D,E)

inhibition of purified HK‐I activity [2]: inhibits HK-I activity
Compound: CC[C@H](C)[C@H](NC(=O)[C@H](Cc1ccc(O)cc1)NC(=O)[C@@H]1CCCN1C(=O)[C@H](CCCNC(=N)N)NC(=O)[C@H](Cc1c[nH]cn1)NC(=O)[C@@H](CO)NC(=O)[C@@H](Cc1c[nH]c2ccccc12)NC(=O)[C@H](NC(=O)[C@@H](Cc1c[nH]c2ccccc12)NC(=O)[C@@H](CCC(=O)O)NC(=O)[C@@H](CCCCN)NC(=O)[C@@H](CCCCN)NC(=O)[C@@H](CC(C)C)NC(=O)[C@@H](CCC(=O)O)NC(=O)[C@H](NC(=O)[C@@H](C)NC(=O)[C@H](NC(=O)[C@@H](CC(N)=O)NC(=O)[C@@H](CC(C)C)NC(=O)[C@@H](C)NC(=O)[C@@H](Cc1c[nH]c2ccccc12)NC(=O)[C@H](NC(=O)[C@@H](C)NC(=O)CNC(=O)[C@@H](CC(N)=O)NC(=O)[C@@H](CO)NC(=O)[C@@H](CC(N)=O)NC(=O)[C@@H](CCCCN)NC(=O)[C@@H](Cc1c[nH]c2ccccc12)NC(=O)[C@H](NC(=O)[C@@H](Cc1c[nH]c2ccccc12)NC(=O)[C@H](N)CCCCN)[C@H](C)O)[C@H](C)O)C(C)C)[C@H](C)O)[C@H](C)O)C(=O)N[C@@H](C)C(=O)N[C@@H](Cc1c[nH]cn1)C(=O)O [R‐Tf‐D‐LP4]
decrease in expression of Glut‐1, HK‐I and GAPDH ([1]; A549, MDA‐MB‐231, U‐87MG tumors vs control (Fig. 8)): three‐ to fourfold
p53 expression levels, elevation ([1]; A549‐, MDA‐MB‐231‐, U‐87MG‐derived tumors, n = 3 (Fig. 7D–F)): over two‐ to fivefold
Caspase‐8 overexpression [1, 6]: two‐ to threefold
SMAC/Diablo expression levels, increase [1, 6]: two‐ to fivefold
caspase‐3 overexpression [1, 6]: two‐ to threefold
Cyto c expression, increase ([1]; treated tumors vs control, n = 3 (Fig. 7D,F)): two‐ to fourfold
decrease in tumor volume [3]: ~ 80% and 70–80%
decrease in tumor volume [4]: ~ 80% and 70–80%
decrease in tumor volume [5]: ~ 80% and 70–80%

Reference: PMC6026870, “Selective induction of cancer cell death by VDAC1‐based peptides and their potential use in cancer therapy” (Molecular Oncology, 2018)
